We go through nine molecules from patent US4503244A, “Sebosuppressive topical cosmetic preparations containing alkoxybenzoic acid esters, process for inhibiting sebum production and alkoxybenzoic acid esters” (Henkel Kommanditgesellschaft, priority 1983, dated 1985).

The structures appear in SMILES notation.

Assay [1] has as its system seborrhea / production of sebum. As to conditions: background art; cited from earlier work.
For assay [2], the system named is brown skin surface lipid of the rats. Nature of the assay: Antiseborrheic effect: browning of the shaved back of rats, visually assessed (half-back application, 14 days). The note with it: for Sebum reduction: (ΔP/Pk)·100. Format: in vivo, male Wistar rats. An excerpt:
The antiseborrheic effect was closely studied using the animal tests described in the following:
The test animals were male Wistar rats having a body weight of 220 to 230 g at the beginning of the tests. The degree of browning on the shaved back of the rats was visually assessed. Browning is produced by the brown skin surface lipid of the rats. This test is based on the observation that young female rats and also male rats washed with a tenside solution or with a lipid solvent and also male rats systematically treated with estrogen only have the normal light, pink-colored skin after shaving. At the same time, only comparatively very small quantities of lipids can be extracted from the shaved hair.
In order to assess effectiveness, the test substances in solution in alcohol were each brushed onto half the back of 6 rats. The other half was only treated with the solvent minus active substances.
Over the test period of 14 days, the test substances were applied once daily for a total of 9 days. A group of 6 rats which remained completely untreated was used for further control. At the end of the test, the animals were shaved on their back and sides and were visually assessed independently by an examination panel of 6 people under double blind conditions.
The first criterion evaluated was whether the majority of examiners correctly recognized the treated side, differentiation being carried out as follows:
The second criterion evaluated was the difference between the righthand side and the lefthand side, each examiner having to award 1 point per animal on the following basis:
lighter side--0 point and
both sides the same--0.5 point
Significant differences between the untreated and treated sides in the second method of evaluation indicate the local effectiveness of a substance.
The third criterion evaluated was the difference in intensity between the shades of brown using the following scale:
In the third method or evaluation, the points total differences are worked out between the untreated control animals and the treated and untreated sides of the test animals, significant differences between the control animals and the treated side of the test animals again indicating the effectiveness of a substance.
At the same time, there is generally also a distinct difference between the untreated and treated sides of the groups of test animals. However, this difference is not always as clear as that between the control animals and the treated sides, for which there may be various reasons, including for example mechanical transfer of substance from one side to the other or solvent influence.
The following scheme was used for differentiating the effects according to evaluation methods 2 and 3:
Percentage sebum reduction
The sebum reduction is calculated from the points difference by working out the quotient between the points difference ΔP and the number of points for the control group Pk and expressing the value obtained in percent.
Sebum reduction=(ΔP/Pk)·100[%]

With `CCN(CC)C(=O)c1cccc(C)c1` [N,N-diethyl-m-toluamide], the “sebosuppressive / antiseborrheic effect of known substances” value in assay [1] is “neither N,N-diethyl-m-toluamide nor phenylpentadienoic acid show, however, fully satisfactory sebosuppressive properties”.
As for `CCCCCCCCCCOc1ccc(C(=O)OCCOCC)cc1` [B, p-decyloxybenzoic acid 2-ethoxy-ethyl ester], in assay [2] (Conc. 0.1% in alcohol), the “Evaluation method 1 (percentage of examiners noticing an effect)” value is given as “++ (100%)”; the “Evaluation method 2 (points difference between treated and untreated side)” value is on record as “++ (very large (≥99.9% probability))”; the “Evaluation method 3 (difference in intensity between shades of brown vs untreated control animals)” value is listed as “++ (very large (≥99.9% probability))”; the Sebum reduction was 30%. Moreover, in assay [2] (Conc. 1.0% in alcohol), the “Evaluation method 1 (percentage of examiners noticing an effect)” value was “++ (100%)”; the “Evaluation method 2 (points difference between treated and untreated side)” value is recorded as “++ (very large (≥99.9% probability))”; the “Evaluation method 3 (difference in intensity between shades of brown vs untreated control animals)” value is reported as “++ (very large (≥99.9% probability))”; the Sebum reduction was found to be 93%.
For `CCCCCCCCCCCCOc1ccc(C(=O)OCCOC)cc1` [F, p-dodecyloxybenzoic acid 2-methoxy-ethyl ester], in assay [2] (Conc. 0.2% in alcohol), the “Evaluation method 1 (percentage of examiners noticing an effect)” value is “++ (100%)”; the “Evaluation method 2 (points difference between treated and untreated side)” value was “++ (very large (≥99.9% probability))”; the “Evaluation method 3 (difference in intensity between shades of brown vs untreated control animals)” value is “++ (very large (≥99.9% probability))”; the Sebum reduction stood at 92%. Further, in assay [2] (Conc. 1.0% in alcohol), the “Evaluation method 1 (percentage of examiners noticing an effect)” value is on record as “++ (100%)”; the “Evaluation method 2 (points difference between treated and untreated side)” value is listed as “++ (very large (≥99.9% probability))”; the “Evaluation method 3 (difference in intensity between shades of brown vs untreated control animals)” value is “++ (very large (≥99.9% probability))”; the Sebum reduction is given as 91%.
Turning to `CCCCCCCCCCOc1ccc(C(=O)OCCN(CC)CC)cc1` [E, p-decyloxybenzoic acid 2-diethylaminoethyl ester], in assay [2] (Conc. 0.1% in alcohol), the “Evaluation method 1 (percentage of examiners noticing an effect)” value is on record as “++ (100%)”; the “Evaluation method 2 (points difference between treated and untreated side)” value is “++ (very large (≥99.9% probability))”; the “Evaluation method 3 (difference in intensity between shades of brown vs untreated control animals)” value was “++ (very large (≥99.9% probability))”; the Sebum reduction is given as 80%. Further, in assay [2] (Conc. 1.0% in alcohol), the “Evaluation method 1 (percentage of examiners noticing an effect)” value was “++ (100%)”; the “Evaluation method 2 (points difference between treated and untreated side)” value is “++ (very large (≥99.9% probability))”; the “Evaluation method 3 (difference in intensity between shades of brown vs untreated control animals)” value is reported as “++ (very large (≥99.9% probability))”; the Sebum reduction is recorded as 90%.
In the case of `O=C(O)C=CC=Cc1ccccc1` [phenylpentadienoic acid], in assay [1], the “sebosuppressive / antiseborrheic effect of known substances” value is reported as “neither N,N-diethyl-m-toluamide nor phenylpentadienoic acid show, however, fully satisfactory sebosuppressive properties”.
For the molecule `CCCCCCCCCCOc1ccc(C(=O)OCCO)cc1` [D, p-decyloxybenzoic acid 2-hydroxy-ethyl ester], in assay [2] (Conc. 1.0% in alcohol), the “Evaluation method 1 (percentage of examiners noticing an effect)” value is “++ (100%)”; the “Evaluation method 2 (points difference between treated and untreated side)” value was “++ (very large (≥99.9% probability))”; the “Evaluation method 3 (difference in intensity between shades of brown vs untreated control animals)” value was “++ (very large (≥99.9% probability))”; the Sebum reduction worked out at 98%.
For the molecule `CCCCCCCCCCOc1ccc(C(=O)OCCOCCOC)cc1` [C, p-decyloxybenzoic acid 2-(2-methoxyethoxy)-ethyl ester], in assay [2] (Conc. 0.1% in alcohol), the “Evaluation method 1 (percentage of examiners noticing an effect)” value is listed as “++ (100%)”; the “Evaluation method 2 (points difference between treated and untreated side)” value is “++ (very large (≥99.9% probability))”; the “Evaluation method 3 (difference in intensity between shades of brown vs untreated control animals)” value is “++ (very large (≥99.9% probability))”; the Sebum reduction came out at 26%. Moreover, in assay [2] (Conc. 1.0% in alcohol), the “Evaluation method 1 (percentage of examiners noticing an effect)” value is given as “++ (100%)”; the “Evaluation method 2 (points difference between treated and untreated side)” value is reported as “++ (very large (≥99.9% probability))”; the “Evaluation method 3 (difference in intensity between shades of brown vs untreated control animals)” value is listed as “++ (very large (≥99.9% probability))”; the Sebum reduction came to 100%.
With `CCCCCCCCCCOc1ccc(C(=O)OCCOC)cc1` [A, p-decyloxybenzoic acid 2-methoxy-ethyl ester], in assay [2] (Conc. 0.1% in alcohol), the “Evaluation method 1 (percentage of examiners noticing an effect)” value is “++ (100%)”; the “Evaluation method 2 (points difference between treated and untreated side)” value was “++ (very large (≥99.9% probability))”; the “Evaluation method 3 (difference in intensity between shades of brown vs untreated control animals)” value is given as “++ (very large (≥99.9% probability))”; the Sebum reduction was determined as 69%. Besides, in assay [2] (Conc. 1.0% in alcohol), the “Evaluation method 1 (percentage of examiners noticing an effect)” value is “++ (100%)”; the “Evaluation method 2 (points difference between treated and untreated side)” value is “++ (very large (≥99.9% probability))”; the “Evaluation method 3 (difference in intensity between shades of brown vs untreated control animals)” value is given as “++ (very large (≥99.9% probability))”; the Sebum reduction is given as 100%.
Turning to `CCCCCCCCCCOc1ccc(C(=O)OCC(=O)OC)cc1` [G, p-decyloxybenzoyloxy-acetic acid methyl ester], in assay [2] (Conc. 0.5% in alcohol), the “Evaluation method 1 (percentage of examiners noticing an effect)” value was “++ (100%)”; the “Evaluation method 2 (points difference between treated and untreated side)” value is given as “++ (very large (≥99.9% probability))”; the “Evaluation method 3 (difference in intensity between shades of brown vs untreated control animals)” value is listed as “++ (very large (≥99.9% probability))”; the Sebum reduction amounted to 82%.
